The text below walks through data of US6095147A, “Method for photo-altering a biological system to improve biological effect” (The Regents of the University of California, priority 1994, dated 2000).

Series [1] is described as follows: Noninvasive laser fluorescence (HeCd) measurement of SnET2 uptake and distribution in ocular tissues after subconjunctival injection. The conditions noted are these: for Axis Fluorescence Ratio (670 nm/570 nm) / Conjunctiva Fluorescence Ratio (670 nm/570 nm) / Iris Fluorescence Ratio (670 nm/570 nm) / Ratio of Fluorescence (Conjuctiva/Axis) / Ratio of Fluorescence (Conjuctiva/Iris): 3 hr. It counts as in vivo, rabbit. On the procedure: (§1) Pharmacokinetics of the photosensitive agent or tin ethyl-etiopurpurin (SnET2) were studied after subconjunctival injections (0,25,50,75 ug; 11 rabbits). Noninvasive measurements were made at 0, 0.5, 1, 2, 3 and 4 hr postinjection using a HeCd based laser fluorescence diagnostic system (excitation-442 nm; detection-670 nm SnET2 fluorescence; tissue autofluorescense-570 nm). SnET2 uptake was determined by an elevated 670/570 nm ratio. Preoperative injections (0, 25, 50 and 75 ug; 8 rabbits) of SnET2 were given and posterior lip sclerectomies were performed after 3-4 hrs followed by post operative laser irradiation (665 nm; 100 mW/cm^2; 30 J/cm^2). […] Self absorption of the fluorescence was present in the higher doses for the conjunctiva. Fluorescence ratios (T=3 hr) were as follows. The fluorescence ratios are shown below in Table 2. The tissue ratios were: conjunctiva/iris: 0 (control)=1.2; 25 ug=63+/-17; 50 ug=54+/-31; 75 ug=4+/-1.2. Conjunctiva/optical axis: 0 (control)=1.4; 25 ug=109+/-37; 50 ug=78+/-10; 75 ug=11+/-2.5.
Noninvasive fluorescent measurements, using a HeCd laser, was made of the SnET2 to determine its uptake and distribution. Exposure of SnET2 with a HeCd laser, excites the tissue at 442 nanometers and detects 670 nanometer florescence for SnET2 and 570 nanometer for tissue autofluorescence. The higher the ratio (670 nm/570 nm), the higher the uptake. Measurements in the conjunctiva compared to the iris and of the conjunctiva as compared to the axis of the eye, namely the pupil, were compared three hours after injection. […] In this case the self-absorption of the 670 nm fluorescence by the SnET2 at such a high local concentration causes the intensity to actually decrease. […] This is also due to self-absorption. Note that for the iris and axis readings the signal does continue to increase with increasing injected dose due to the greater leakage into these areas of the eye with the higher injected doses. This is a negative, unwanted effect and is why the ratios of the conjuntiva/iris and conjuntiva/axis ratios decrease in Table 3. […] The decreased tissue ratios at the higher photosensitizer injection doses indicate lower specificity due to greater leakage from the injection site.

In series [2] the test system is conjunctiva. The series can be described thus: Posterior lip sclerectomy (filtration surgery) with preoperative SnET2 injection and postoperative laser irradiation. It counts as in vivo, rabbit. To be noted: 665 nm, 100 mW/cm^2. As to the method: as §1
Some of the animals of the group shown in Table 2 and 3 were treated with 665 nanometers laser light at 100 milliwatt per square centimeter (30 Joules per square centimeter) exposure with 8 millimeter diameter spot three to four hours after the injection of the SnET2 following filtering surgery in the eye.

The mark [3] stands for this setting: 25 μg subconjunctival, 3 animals.
The mark [4] stands for this setting: 50 μg subconjunctival, 3 animals.
Where [5] appears, read: 75 μg subconjunctival, 5 animals.

For `CCOC(=O)C1=Cc2c3nc(cc4nc(cc5[n-]c(cc6[n-]c2c(C)c6CC)c(C)c5CC)C(C)=C4CC)[C@@H](C)[C@]13CC.[Cl-].[Cl-].[Sn]` (racemic) [SnET2, tin ethyl-etiopurpurin], in series [1] (setting [3]), the “Axis Fluorescence Ratio (670 nm/570 nm)” value was 0.26 +/- 0.03, the “Conjunctiva Fluorescence Ratio (670 nm/570 nm)” value (“Conjunctiva Fluorescence Ratio” for short) is on record as 28.27 +/- 10.90, the “Iris Fluorescence Ratio (670 nm/570 nm)” value is reported as 0.44 +/- 0.08 and the “Ratio of Fluorescence (Conjuctiva/Axis)” value is listed as 109+/-37. Moreover, the “Ratio of Fluorescence (Conjuctiva/Iris)” value in series [1] (setting [3]) is reported as 63+/-17. For the same compound, in series [1] (setting [4]), the “Axis Fluorescence Ratio (670 nm/570 nm)” value was 0.37 +/- 0.05, the “Conjunctiva Fluorescence Ratio” value is given as 31.70 +/- 8.60, the “Iris Fluorescence Ratio (670 nm/570 nm)” value is 0.65 +/- 0.21 and the “Ratio of Fluorescence (Conjuctiva/Axis)” value is 78+/-10. Moreover, the “Ratio of Fluorescence (Conjuctiva/Iris)” value in series [1] (setting [4]) was 54+/-31. Also, in series [1] (setting [5]), the “Axis Fluorescence Ratio (670 nm/570 nm)” value was 1.30 +/- 0.90, the “Iris Fluorescence Ratio (670 nm/570 nm)” value is 4.72 +/- 4.94, the “Ratio of Fluorescence (Conjuctiva/Axis)” value is on record as 11 +/- 2.5 and the “Ratio of Fluorescence (Conjuctiva/Iris)” value was 4 +/- 1.2. Further, in series [1] (75 μg subconjunctival, 5 animals, self-absorption of fluorescence), the “Conjunctiva Fluorescence Ratio” value is recorded as 15.14 +/- 13.60. Besides, in series [1] (subconjunctival injection), the “levels in the iris and optical axis” value was “small, but detectable levels”; the “time of peak conjunctival fluorescence post injection” value came out at 3 h; the “uptake and retention at the injection site (conjunctiva)” value was “preferentially taken up and preferentially remains in the area of the injection, namely the conjunctiva”. In addition, in series [2] (30 J/cm^2), the “overall effect of photodynamic therapy on conjunctiva” value was “titratable, localized, transient, post operative avascular conjunctiva”. Besides, the “avascular conjunctiva, post operative” value in series [2] (SnET2 25, 50, 75 ug, 30 J/cm^2, 3-4 hrs after injection) is on record as “large transient areas of avascular conjunctiva were produced”. Besides, the “limitation of avascular areas to filtering blebs” value in series [2] (at 4 weeks, 30 J/cm^2) is given as “limitation of avascular areas to filtering blebs at 4 weeks”.
